In assay [1] the test system is cells from the thymus of normal BALB/c mice (lymphocyte proliferation). Kind of assay: LAF assay: comitogen-induced thymocyte proliferation (inhibition of lymphocyte proliferation). Type of assay: cell-based. As to the method: Immunosuppressive activity was determined in an in vitro standard pharmacological test to measure lymphocyte proliferation (LAF). […] Thus in this assay, the invention compounds have LAF activity equal or greater than rapamycin and would therefore be expected to posses the immunological properties of rapamycin and be useful in the treatment of transplantation rejection and autoimmune diseases such as lupus, rheumatoid arthritis, diabetes mellitus, multiple sclerosis, psoriasis and the like. Because of the structural similarity of the invention compounds with rapamycin and other analogs having antifungal activity against several strains of Candida albicans, the compounds of this invention would also be expected to have antifungal properties. Similarly, the compounds of this invention would be expected to have antiinflammatory activity.
The comitogen-induced thymocyte proliferation procedure (LAF) was used as an in vitro measure of the immunosuppressive effects of representative compounds. Briefly, cells from the thymus of normal BALB/c mice are cultured for 72 hours with PHA and IL-1 and pulsed with tritiated thymidine during the last six hours. Cells are cultured with and without various concentrations of rapamycin, cyclosporin A, or test compound. Cells are harvested and incorporated; radioactivity is determined. Inhibition of lymphoproliferation is assessed in percent change in counts per minute from non-drug treated controls. The results are expressed by the following ratio, or as the percent inhibition of lymphoproliferation at a concentration of 1 μM or as the IC50. [formula]

For assay [2] the following is noted: cited from earlier work.
The conditions of assay [3]: in vivo; cited from earlier work.
A further assay has as its system tumor. The settings on record: alone or in combination with picibanil; cited from earlier work.
Assay [4] deals with Candida albicans. The following applies: particularly against Candida albicans; cited from earlier work.
A further assay deals with IgE-like antibodies. The following applies: in vivo; cited from earlier work.
Assay [5] concerns Candida albicans. The following applies: particularly against Candida albicans; cited from earlier work. This is another data set of the same source.
For assay [6] the following is noted: in vivo; cited from earlier work. The source holds these as a separate data set.
Where [7] appears, read: Mus musculus, Lymphocyte, 72 h, Table I, 72 hours culture with PHA and IL-1, read-out: IC50 Ester (IC50 data for LAF assay).

“And” between values parts separate entries of the source, which are not always exact repeats. Equal entries are not always repeated. Where two headings read alike, the source gives them in different places.

For the molecule `COC(=O)O[C@@H]1/C(C)=C/[C@@H](C)C(=O)C[C@@H]([C@H](C)C[C@@H]2CC[C@@H](OC(=O)OC)[C@H](OC)C2)OC(=O)[C@@H]2CCCCN2C(=O)C(=O)[C@]2(O)O[C@@H](CC[C@H]2C)C[C@H](OC)/C(C)=C/C=C/C=C/[C@@H](C)C[C@@H](C)C(=O)[C@@H]1OC` [Example 1A, 31, 42-O-Bis(methoxycarbonyl)rapamycin], in assay [1] (setting [7]), the IC50 was 0.87 nM. On the same count and under the same terms, the value for `COC(=O)O[C@@H]1CC[C@@H](C[C@@H](C)[C@@H]2CC(=O)[C@H](C)/C=C(\C)[C@@H](O)[C@@H](OC)C(=O)[C@H](C)C[C@H](C)/C=C/C=C/C=C(\C)[C@@H](OC)C[C@@H]3CC[C@@H](C)[C@@](O)(O3)C(=O)C(=O)N3CCCC[C@H]3C(=O)O2)C[C@H]1OC` [Example 1B, 42-O-Methoxycarbonylrapamycin] was 2.5 nM; that for `CCOC(=O)O[C@@H]1/C(C)=C/[C@@H](C)C(=O)C[C@@H]([C@H](C)C[C@@H]2CC[C@@H](OC(=O)OCC)[C@H](OC)C2)OC(=O)[C@@H]2CCCCN2C(=O)C(=O)[C@]2(O)O[C@@H](CC[C@H]2C)C[C@H](OC)/C(C)=C/C=C/C=C/[C@@H](C)C[C@@H](C)C(=O)[C@@H]1OC` [Example 2A, 31, 42-O-Bis(ethoxycarbonyl)rapamycin] was 2 nM; that for `CCOC(=O)O[C@@H]1CC[C@@H](C[C@@H](C)[C@@H]2CC(=O)[C@H](C)/C=C(\C)[C@@H](O)[C@@H](OC)C(=O)[C@H](C)C[C@H](C)/C=C/C=C/C=C(\C)[C@@H](OC)C[C@@H]3CC[C@@H](C)[C@@](O)(O3)C(=O)C(=O)N3CCCC[C@H]3C(=O)O2)C[C@H]1OC` [Example 2B, 42-O-Ethoxycarbonylrapamycin] was 0.6 nM. In the case of `CO[C@H]1C[C@@H]2CC[C@@H](C)[C@@](O)(O2)C(=O)C(=O)N2CCCC[C@H]2C(=O)O[C@H]([C@H](C)C[C@@H]2CC[C@@H](OC(=O)Oc3ccccc3)[C@H](OC)C2)CC(=O)[C@H](C)/C=C(\C)[C@@H](O)[C@@H](OC)C(=O)[C@H](C)C[C@H](C)/C=C/C=C/C=C/1C` [Example 3, 42-O-(Phenyloxycarbonyl)rapamycin], the IC50 in assay [1] (setting [7]) was 0.34 nM.

On to `CO[C@H]1C[C@@H]2CC[C@@H](C)[C@@](O)(O2)C(=O)C(=O)N2CCCC[C@H]2C(=O)O[C@H]([C@H](C)C[C@@H]2CC[C@@H](OC(=O)Oc3ccc([N+](=O)[O-])cc3)[C@H](OC)C2)CC(=O)[C@H](C)/C=C(\C)[C@@H](O)[C@@H](OC)C(=O)[C@H](C)C[C@H](C)/C=C/C=C/C=C/1C` [Example 4A, 42-O-(4-Nitrophenyloxycarbonyl)rapamycin], for which the IC50 in assay [1] (setting [7]) was 1 nM.

`CO[C@H]1C[C@@H]2CC[C@@H](C)[C@@](O)(O2)C(=O)C(=O)N2CCCC[C@H]2C(=O)O[C@H]([C@H](C)C[C@@H]2CC[C@@H](OC(=O)Oc3ccc([N+](=O)[O-])cc3)[C@H](OC)C2)CC(=O)[C@H](C)/C=C(\C)[C@@H](OC(=O)Oc2ccc([N+](=O)[O-])cc2)[C@@H](OC)C(=O)[C@H](C)C[C@H](C)/C=C/C=C/C=C/1C` [Example 4B, 31, 42-O-Bis(4-Nitrophenyloxycarbonyl)rapamycin]: the half-maximal inhibitory concentration (IC50) in assay [1] (Mus musculus, Lymphocyte, 72 h, read-out: IC50 Ester (IC50 data for LAF assay)) was found to be 23 nM.

With `C=CCOC(=O)O[C@@H]1CC[C@@H](C[C@@H](C)[C@@H]2CC(=O)[C@H](C)/C=C(\C)[C@@H](O)[C@@H](OC)C(=O)[C@H](C)C[C@H](C)/C=C/C=C/C=C(\C)[C@@H](OC)C[C@@H]3CC[C@@H](C)[C@@](O)(O3)C(=O)C(=O)N3CCCC[C@H]3C(=O)O2)C[C@H]1OC` [Example 5, 42-O-(Prop-2-enyloxycarbonyl)rapamycin], the 50% inhibitory concentration (IC50) in assay [1] (setting [7]) was determined as 1.6 nM.

On to `CO[C@H]1C[C@@H]2CC[C@@H](C)[C@@](O)(O2)C(=O)C(=O)N2CCCC[C@H]2C(=O)O[C@H]([C@H](C)C[C@@H]2CC[C@@H](OC(=O)OCc3ccccc3)[C@H](OC)C2)CC(=O)[C@H](C)/C=C(\C)[C@@H](O)[C@@H](OC)C(=O)[C@H](C)C[C@H](C)/C=C/C=C/C=C/1C` [Example 6, 42-O-(Benzyloxycarbonyl)rapamycin], for which the concentration for half-maximal inhibition (IC50) in assay [1] (setting [7]) worked out at 0.32 nM.

`C=CC[C@@H]1/C=C(\C)C[C@H](C)C[C@H](OC)[C@H]2O[C@@](O)(C(=O)C(=O)N3CCCC[C@H]3C(=O)O[C@H](/C(C)=C/[C@@H]3CC[C@@H](O)[C@H](OC)C3)[C@H](C)[C@@H](O)CC1=O)[C@H](C)C[C@@H]2OC` [FK-506]: in assay [2] (useful in preventing transplant rejection), the “effectiveness as immunosuppressive agent” value was “effective as immunosuppressive agents”. As for `CO[C@H]1C[C@@H]2CC[C@@H](C)[C@@](O)(O2)C(=O)C(=O)N2CCCC[C@H]2C(=O)O[C@H]([C@H](C)C[C@@H]2CC[C@@H](O)[C@H](OC)C2)CC(=O)[C@H](C)/C=C(\C)[C@@H](O)[C@@H](OC)C(=O)[C@H](C)C[C@H](C)/C=C/C=C/C=C/1C` [Rapamycin], the “efficacy in adjuvant arthritis model” value in assay [3] is listed as “effective”. Also, the antitumor activity entry with tumor is on record as “antitumor activity”. For the same molecule, the “antifungal activity in vivo” value with Candida albicans [4] is “antifungal activity, particularly against Candida albicans”. The “inhibition of formation of IgE-like antibodies” value with IgE-like antibodies is “effectively inhibited”. In addition, in assay [2] (in vivo), the “inhibition of transplant rejection” value is recorded as “effective in inhibiting transplant rejection”. Further, the “antifungal activity in vitro” value in the assay on Candida albicans [5] is given as “antifungal activity, particularly against Candida albicans”. Besides, the IC50 in assay [1] (Table I, Rapamycin, comparative result beside each example ester, read-out: IC50 Rapamycin (IC50 data for LAF assay)) was 3.9 nM and 3.8 nM and 6.3 nM. The “efficacy in experimental allergic encephalomyelitis model” value in assay [6] is “effective”.

One may read the IC50 as the concentration that gives 50% inhibition.

The values above are taken from US5260300A, “Rapamycin carbonate esters as immuno-suppressant agents” (American Home Products Corporation, priority 1992, dated 1993).
